Earlier results in patent US20250288585A1, “SYNERGISTIC COMPOSITIONS FOR ENHANCED HAIR GROWTH AND METHODS FOR TREATING HAIR LOSS” (The Johns Hopkins University, priority 2024, published 2025).

Columns and labels:
[1] = tested on: subjects with androgenetic alopecia; conditions: topical tretinoin alone
[2] = tested on: follicular sulfotransferase; conditions: topical 0.1% tretinoin, plucked hairs, in vitro
[3] = liposomal hydrogel system

| permeation through skin ex vivo [3] | Structure (SMILES) | subjects with some hair regrowth [1] | effect on expression of follicular sulfotransferase [2] |
| --- | --- | --- | --- |
| retained on the skin | CC1=C(/C=C/C(C)=C/C=C/C(C)=C/C(=O)O)C(C)(C)CCC1 [tretinoin, all-trans-retinoic acid] | approximately 58% | influences the expression of follicular sulfotransferase |
| enhanced the permeation | Nc1cc(N2CCCCC2)nc(N)[n+]1[O-] [minoxidil] |  |  |
